In brackets after ≈: the same amount, converted by molar mass.
Experiments:
E. faecalis ATCC 29212 [1] = test: MIC assay, serial two-fold microdilution in liquid medium; type: cell-based; conditions: Enterococcus faecalis, ATCC29212; E. faecalis ATCC 29212, planktonic, 37 °C, 24 h; read-out: minimum inhibitory concentration (MIC)
Procedure: (§1) The inhibitory activity of the obtained compounds has been assessed on five microbial strains, respectively: E. coli ATCC 25922, P. aeruginosa ATCC 27853, S. aureus ATCC 25923, E. faecalis ATCC 29212 and C. albicans ATCC 90029, in a planktonic and adherent growth state.
(§2) The MIC assay was performed by the serial two-fold microdilutions in a liquid medium, using a concentration range from 5 to 0.009 mg/mL and microbial suspensions of 0.5 MacFarland density. The wells containing only the microbial culture served as positive control and those containing the sterile culture medium as the negative control. The MIC values were read after incubation at 37 °C for 24 h.

P. aeruginosa ATCC 27853 [2] = test: as above; type: cell-based; conditions: Pseudomonas aeruginosa, ATCC27853; P. aeruginosa ATCC 27853, planktonic, 37 °C, 24 h; read-out: minimum inhibitory concentration (MIC)
Procedure: as §1, §2

E. coli ATCC 25922 [3] = test: as above; type: cell-based; conditions: Escherichia coli, ATCC25922; E. coli ATCC 25922, planktonic, 37 °C, 24 h; read-out: minimum inhibitory concentration (MIC)
Procedure: as §1, §2

C. albicans ATCC 90029 = test: as above; type: cell-based; conditions: Candida albicans, ATCC90029; C. albicans ATCC 90029, planktonic, 37 °C, 24 h; read-out: minimum inhibitory concentration (MIC)
Procedure: as §1, §2

S. aureus ATCC 25923 = test: as above; type: cell-based; conditions: Staphylococcus aureus, ATCC25923; S. aureus ATCC 25923, planktonic, 37 °C, 24 h; read-out: minimum inhibitory concentration (MIC)
Procedure: as §1, §2

E. coli ATCC 25922 [4] = test: Flow cytometry (FCM) membrane depolarization, DiBAC4(3); type: cell-based, Escherichia coli; conditions: DiBAC4, 18–24 h
Procedure: The investigation of potential mechanisms of antimicrobial action by flow cytometry (FCM) was performed on microbial cultures obtained after 18–24 h of microbial cell incubation in the presence of subinhibitory concentrations of the analyzed compounds. Thus, microbial suspensions with a density of approximately 10^6 CFU/mL were prepared in sterile saline phosphate buffer from exponentially growing microbial cultures, obtained on a solid culture medium. Subinhibitory concentrations of the compounds were prepared in Muller–Hinton liquid culture medium and inoculated with an equal amount of microbial suspension and incubated for 18–24 h at 37 °C.
Microbial suspensions inoculated in a liquid medium were used as growth control. After incubation, the DiBAC4 fluorochrome solution [bis-(1,3-dibutylbarbituric acid) trimethinoxonol] Invitrogen/Life Technologies, Carlsbad, was added (0.5 μg/mL).
Fluorescence intensity (FI) was measured with an Accuri C6 plus flow cytometer in the FITC fluorescence channel. Growth control was used to locate the microbial cell population for fluorescence measurements. DiBAC4 dye was used to detect changes in the microbial membrane potential. […] A twofold increased fluorescence intensity (median fluorescence intensity = MFI) was considered to correspond to the depolarized microbial cells. For each subinhibitory concentration, a coloring index (CI) was calculated which represents the ratio of fluorescence intensity (FI) of treated versus untreated cells.

[5] = Scavenger activity towards ABTS•+ free radical; type: biochemical; conditions: 6 min; for IC50: linear regression over 25–1000 μM, mean ± SD of three, read-out: IC50 by means of ABTS•+ assay
Procedure: The method according to Re R. et al. was used to evaluate the scavenger capacity of the free radical.
The ABTS^•+ free radical resulted from the reaction between 2,2′-azinobis-(3-ethylbenzothiazoline-6-sulfonic acid) diammonium salt (7.4 mM) (solution 1) (Sigma-Aldrich, Germany) and potassium persulfate (2.6 mM) (solution 2) (Roth, Germany).
In order to obtain the ABTS^•+ free radical reagent, equal volumes of solutions 1 and 2 were mixed for 16 h. The obtained reagent was kept in the dark; 1 mL of the obtained solution was brought to a 50 mL volumetric flask and diluted with ethanol so that the absorbance at λ = 734 nm would be 0.700 ± 0.02.
The tested compounds were dissolved and diluted similar to the previous antioxidant assay. […]
The following formula was used for the calculation of the ABTS^•+ free radical scavenger activity (%) Inhibition %=Abst=0min−Abst=6min/Abst=0min×100 where: Abst = ABTS^•+ solution absorbance in the absence (0 min)/presence (6 min) of the tested compounds.
(§3) For both the above-mentioned methods, the antioxidant activity was expressed as IC50 values (μM) which represent the concentration of each compound for which the scavenging activity of free radicals is 50%. […]

P. aeruginosa ATCC 27853 [6] = test: Anti-biofilm activity assay, purple violet microtiter method; type: cell-based, Pseudomonas aeruginosa; conditions: P. aeruginosa ATCC 27853 biofilm
Procedure: as §1
(§4) The anti-biofilm activity assay was performed by the purple violet microtiter method, as previously described, allowing us to determine the minimal biofilm inhibitory concentration (MBEC). The same range of concentrations, as in the MIC assay, i.e., from 5 to 0.009 mg/mL has been tested.

E. faecalis ATCC 29212 [7] = test: as above; type: cell-based; conditions: E. faecalis ATCC 29212 biofilm
Procedure: as §1, §4

[8] = Scavenger activity towards DPPH free radical; type: biochemical; conditions: 30 min; for IC50: linear regression over 25–1000 μM, mean ± SD of three, read-out: IC50 by means of DPPH assay
Procedure: The DPPH (Sigma-Aldrich, Darmstadt, Germany) solution of 0.1 mM concentration was obtained by dissolving 0.0039 g of free radical in 100 mL ethanol, in a volumetric flask. For all determinations, the DPPH solution was freshly prepared and kept in the dark. Ethanol has been chosen since tested compounds were dissolved in ethanol: DMSO = 99:1 (v/v) mixture.
The analyzed compounds were dissolved in 25 mL of ethanol: DMSO = 99:1 (v/v) mixture in a final concentration of 1000 μM (stock solution), from which several concentrations of 25 μM, 50 μM, 75 μM, 100 μM, 250 μM and 500 μM were obtained by successive dilutions.
The determination of the antioxidant activity was based on the Ohnishi M et al. method, quoted by Germano M.P. et al..
[…] The samples were kept at rest in the dark for 30 min [79, 81]. Ethanol was used as a blank in order to measure the absorbance at 515 nm (Jasco V-530 spectrophotometer, Jasco, Japan).
The following formula was used to determine DPPH free radical scavenger activity (%): Inhibition %=Acontrol−Asample/Acontrol×100 where, A = absorbance of the 0.1 mM DPPH solution in the absence (control)/presence (sample) of tested compounds after 30 min.
as §3

[9] = subinhibitory concentration tested 1.25 mg/mL

| SMILES | MIC (E. faecalis ATCC 29212 [1]) | MIC (P. aeruginosa ATCC 27853 [2]) | MIC (E. coli ATCC 25922 [3]) | MIC (C. albicans ATCC 90029) | MIC (S. aureus ATCC 25923) | staining index value (SI) (E. coli ATCC 25922 [4]; [9]) | IC50 [5] | minimum biofilm inhibitory concentration (MBIC) (P. aeruginosa ATCC 27853 [6]) | minimum biofilm inhibitory concentration (MBIC) (E. faecalis ATCC 29212 [7]) | DPPH free radical scavenger capacity ([8]; at 25 μM) | DPPH free radical scavenger capacity ([8]; at 1000 μM) | IC50 [8] | staining index value (SI) (E. coli ATCC 25922 [4]; subinhibitory concentration tested 2.5 mg/mL) | ABTS•+ free radical scavenger activity ([5]; at 1000 μM) | ABTS•+ free radical scavenger activity ([5]; at 25 μM) |
| --- | --- | --- | --- | --- | --- | --- | --- | --- | --- | --- | --- | --- | --- | --- | --- |
| O=C(Nc1ccccc1)ON=C1c2ccccc2-c2ccccc21 [Compound 1a, 9-(phenylcarbamoyloxymino)fluoren] | 2500 mg/L (≈ 7.95 mM) | 2500 mg/L (≈ 7.95 mM) | 2500 mg/L (≈ 7.95 mM) | 2500 mg/L (≈ 7.95 mM) | 2500 mg/L (≈ 7.95 mM) | 80.7 | 9.8854 ± 0.000251 mM | 0.009 mg/mL | 1.25 mg/mL | 12.66% | 19.81% | 5.7352 ± 8.28e-05 mM | – | – | – |
| Cc1cccc(NC(=O)ON=C2c3ccccc3-c3ccccc32)c1 [Compound 1b, 9-((3-methyl-phenyl)carbamoyloximino)fluoren] | 10000 mg/L (≈ 30.5 mM) | 2500 mg/L (≈ 7.61 mM) | 5000 mg/L (≈ 15.2 mM) | 5000 mg/L (≈ 15.2 mM) | 2500 mg/L (≈ 7.61 mM) | – | 9.3794 ± 0.00102 mM | 0.156 mg/mL | 1.25 mg/mL | – | 16.29% | 12.263 ± 5.74e-05 mM | 10.2 | 26.60% | – |
| O=C(Nc1cccc(Cl)c1)ON=C1c2ccccc2-c2ccccc21 [Compound 1c, 9-((3-chloro-phenyl)carbamoyloxymino)fluoren] | 5000 mg/L (≈ 14.3 mM) | 2500 mg/L (≈ 7.17 mM) | 2500 mg/L (≈ 7.17 mM) | 5000 mg/L (≈ 14.3 mM) | 2500 mg/L (≈ 7.17 mM) | 3.2 | 18.2 mM | 1.25 mg/mL | 0.312 mg/mL | – | 24.64% | 5.208 ± 0.000124 mM | – | – | 12.53% |
| O=C(Nc1ccc(Cl)c(Cl)c1)ON=C1c2ccccc2-c2ccccc21 [Compound 1d, 9-((3,4-dichloro-phenyl)carbamoyloxymino)fluoren] | 5000 mg/L (≈ 13 mM) | 2500 mg/L (≈ 6.52 mM) | 5000 mg/L (≈ 13 mM) | 5000 mg/L (≈ 13 mM) | 156 mg/L (≈ 0.407 mM) | 173.3 | – | 1.25 mg/mL | 1.25 mg/mL | – | – | – | – | – | – |
